Assay results: article PMC6630718, “Discovery of Novel UV-Filters with Favorable Safety Profiles in the 5-Arylideneimidazolidine-2,4-dione Derivatives Group” (Molecules, 2019)

Legend:
[1] = Photostability in methanol solutions (solar light simulator); assay type: physicochemical; set-up: λmax pre-irradiation: unit not given beside the values; conditions: methanol solution; for % of initial AUC post-irradiation / λmax post-irradiation: 1h irradiation at 500 W/m2
Summary of the method: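 Compounds at 25 or 50 µM in methanol, in stoppered quartz cuvettes, were irradiated 1 h at 500 W/m^2 (UV dose 218 kJ/m^2). A solar simulator filtered below 290 nm with an IR block was used. UV absorption spectra before and after irradiation were compared, with UPLC-MS/MS analysis, in duplicate.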

[2] = tested on: Salmonella typhimurium and Escherichia coli strains; test: Ames MPF Penta 2 mutagenicity assay, overall verdict over all strains; assay type: cell-based; conditions: in the absence and presence of metabolic activation
Description: (§1) Growth, exposure and indicator media, liver S9 fraction, S9-NADP, S9-G-6-P, positive control chemicals as well as Salmonella typhimurium and Escherichia coli strains were included in the kit from Xenometrix. According to the obtained results, there were no doses of test compounds 3b and 4g with more than a 2-fold induction over the baseline, and a dose dependent response was not observed both in the absence and presence of metabolic activation (Table S3). Therefore, compounds 3b and 4g were clearly non-mutagenic in the absence and presence of metabolic activation.

[3] = as above; assay type: cell-based, Salmonella typhimurium, Escherichia coli; conditions: Salmonella typhimurium, Escherichia coli; 0.1, 0.2 and 0.5 mM, absence and presence of metabolic activation; read-out: fold induction over the baseline, any dose and strain
Description: as §1

[4] = Ultraviolet spectroscopy in methanol solutions; assay type: physicochemical; conditions: for Absorption Range: scan range 290–400 nm
Summary of the method: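 Spectra recorded from 290–400 nm in methanol (50 or 25 μM) in 1 cm quartz cuvettes. εmax taken as the slope of absorbance vs. concentration over 10–50 μM or 2.5–30 μM.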

[5] = Ames MPF Penta 2 microplate mutagenicity assay, TA1537; conditions: Salmonella typhimurium, FIB (fold induction over baseline)
Experimental: (§2) The assay is a liquid microplate modification of the traditional Salmonella test. During the procedure, bacteria are exposed to different concentrations of a test compound for 90 min in a medium containing sufficient histidine (S. typhimurium) or tryptophan (E. coli) to support cell divisions. Then, the cultures are diluted in pH indicator medium lacking histidine or tryptophan and aliquoted into 48 wells of a 384-well plate. Within 48 hours, cells that have undergone reversion to amino acid prototrophy will grow into colonies. Bacterial metabolism reduces pH of the medium, changing the color of that well from purple to yellow (https://www.xenometrix.ch).
(§3) The following strains were used in the study: S. typhimurium TA98, TA100, TA1535, TA1537 and E. coli wp2 uvrA[pKM101]. TA100, TA1535 and E. coli strains are used for the detection of base substitution mutations, whereas TA98 and TA1537 are utilized for the detection of frameshift mutations. S. typhimurium strains have GC base pairs, whereas E. coli strain has AT base pair at their primary reversion site and detect certain oxidizing mutagens, cross-linking agents and hydrazines.
(§4) The test procedure provided by Xenometrix (https://www.xenometrix.ch) and described earlier was followed. Briefly, the bacterial strains were grown overnight in exposure medium and exposed to test compounds 4g and 3b in 24-well plates for 90 min at 37 °C with agitation in the absence (–S9) or presence (+S9) of 4.5% phenobarbital/ β-naphthoflavone-induced rat liver S9. Compounds 4g and 3b were dissolved in DMSO and tested at final concentrations of 0.1, 0.2 and 0.5 mM. After the preincubation, the cultures were diluted in the indicator medium and the contents of each 24-well culture were distributed into 48 wells on a 384-well plate and incubated further for 48 h at 37 °C without agitation. After the exposure, the number of wells containing bacteria was scored by eye for yellow wells. Positive and negative controls were included in the assay, and all doses were done in triplicate.
(§5) Pure DMSO was used as the negative control.
(§6) The fold increase of revertants relative to the solvent control was determined by dividing the mean number of positive wells at each dose by the solvent control at baseline. The solvent control at baseline was defined as the mean number of positive wells in the solvent control plus one standard deviation (SD). When an increase of more than 2-fold relative to the baseline at more than one dose with a dose–response is observed the sample is classified as positive, whereas when no response >2 times the baseline and no dose–response is stated the sample is negative.

[6] = Ames MPF Penta 2 microplate mutagenicity assay, TA100; assay type: cell-based; conditions: Salmonella typhimurium, read-out: FIB (fold induction over baseline)
Experimental: as §2, §3, §4, §5, §6

[7] = Ames MPF Penta 2 microplate mutagenicity assay, TA98; assay type: cell-based; conditions: Salmonella typhimurium, read-out: FIB (fold induction over baseline)
Experimental: as §2, §3, §4, §5, §6

[8] = Ames MPF Penta 2 microplate mutagenicity assay, TA1535; conditions: Salmonella typhimurium, FIB (fold induction over baseline)
Experimental: as §2, §3, §4, §5, §6

[9] = S. typhimurium TA100 without S9 (–S9), TA100, –S9, 0.1 mM
[10] = S. typhimurium TA100 without S9 (–S9), TA100, –S9, 0.2 mM
[11] = S. typhimurium TA100 without S9 (–S9), TA100, –S9, 0.5 mM
[12] = S. typhimurium TA98 without S9 (–S9), TA98, –S9, 0.1 mM
[13] = S. typhimurium TA98 without S9 (–S9), TA98, –S9, 0.2 mM
[14] = S. typhimurium TA98 without S9 (–S9), TA98, –S9, 0.5 mM

SMILES | λmax pre-irradiation [1] | % of initial AUC post-irradiation [1] | λmax post-irradiation [1] | mutagenicity (verdict in words) [2] | fold induction at 90 min [3] | εmax [4] | λmax [4] | Absorption Range [4] | fold induction at 90 min, 0.1 mM ([5]; TA1537, +S9, 0.1 mM) | fold induction at 90 min, 0.2 mM ([5]; TA1537, +S9, 0.2 mM) | fold induction at 90 min, 0.5 mM ([5]; TA1537, +S9, 0.5 mM) | fold induction at 90 min, 0.1 mM ([5]; TA1537, –S9, 0.1 mM) | fold induction at 90 min, 0.2 mM ([5]; TA1537, –S9, 0.2 mM) | fold induction at 90 min, 0.5 mM ([5]; TA1537, –S9, 0.5 mM) | fold induction at 90 min, 0.1 mM [6, 9] | fold induction at 90 min, 0.2 mM [6, 10] | fold induction at 90 min, 0.5 mM [6, 11] | fold induction at 90 min, 0.1 mM ([6]; TA100, +S9, 0.1 mM) | fold induction at 90 min, 0.2 mM ([6]; TA100, +S9, 0.2 mM) | fold induction at 90 min, 0.5 mM ([6]; TA100, +S9, 0.5 mM) | further results
CCOC(=O)CN1C(=O)/C(=C/C=C/c2ccc(OC)cc2)N(CC(=O)OCC)C1=O [Compound 4g, Diethyl 2,2′-((Z)-4-((E)-3-(4-methoxyphenyl)allylidene)-2,5-dioxoimidazolidine-1,3-diyl)diacetate] | 379 | 80.15% | 378 | non-mutagenic | ≤ 2 | 54996 M⁻¹ cm⁻¹ | 379 nm | 290–400 nm | 1.4 | 1.1 | 0.8 | 0.3 | 1.7 | 0.5 | 1.1 | 0.3 | 0.6 | 0.7 | 0.5 | 0.5 | decrease of AUC after irradiation [1]: 19.9%; fold induction at 90 min, 0.1 mM [7, 12]: 0.5; fold induction at 90 min, 0.2 mM [7, 13]: 0.9; fold induction at 90 min, 0.5 mM [7, 14]: 0.2; fold induction at 90 min, 0.1 mM ([7]; TA98, +S9, 0.1 mM): 0.3; fold induction at 90 min, 0.2 mM ([7]; TA98, +S9, 0.2 mM): 0.4; fold induction at 90 min, 0.5 mM ([7]; TA98, +S9, 0.5 mM): 0.6; fold induction at 90 min, 0.1 mM ([8]; TA1535, +S9, 0.1 mM): 0.3; fold induction at 90 min, 0.2 mM ([8]; TA1535, +S9, 0.2 mM): 0.7; fold induction at 90 min, 0.5 mM ([8]; TA1535, +S9, 0.5 mM): 0.3; fold induction at 90 min, 0.1 mM ([8]; TA1535, –S9, 0.1 mM): 0.3; fold induction at 90 min, 0.2 mM ([8]; TA1535, –S9, 0.2 mM): 1.4; fold induction at 90 min, 0.5 mM ([8]; TA1535, –S9, 0.5 mM): 0.6
CCOC(=O)CN1C(=O)/C(=C/c2ccc(OC)cc2)N(CC(=O)OCC)C1=O [Compound 3b, Diethyl 2,2′-((Z)-4-(4-methoxybenzylidene)-2,5-dioxoimidazolidine-1,3-diyl)diacetate] | 318 | 114.39% | 326 | non-mutagenic | ≤ 2 | 16310 M⁻¹ cm⁻¹ | 318 nm | 290–362 nm | 1.1 | 1.1 | 0.3 | 0.3 | 0.3 | 0.3 | 1.1 | 0.8 | 0.7 | 0.7 | 0.6 | 0.6 | percentage of photoisomer formation ([1]; post-irradiation chromatogram): 28.4%; fold induction at 90 min, 0.1 mM [7, 12]: 0.9; fold induction at 90 min, 0.2 mM [7, 13]: 0.2; fold induction at 90 min, 0.5 mM [7, 14]: 0.9; fold induction at 90 min, 0.1 mM ([7]; TA98, +S9, 0.1 mM): 0.2; fold induction at 90 min, 0.2 mM ([7]; TA98, +S9, 0.2 mM): 0.4; fold induction at 90 min, 0.5 mM ([7]; TA98, +S9, 0.5 mM): 0.3; fold induction at 90 min, 0.1 mM ([8]; TA1535, +S9, 0.1 mM): 0.5; fold induction at 90 min, 0.2 mM ([8]; TA1535, +S9, 0.2 mM): 0.1; fold induction at 90 min, 0.5 mM ([8]; TA1535, +S9, 0.5 mM): 0.1; fold induction at 90 min, 0.1 mM ([8]; TA1535, –S9, 0.1 mM): 0.8; fold induction at 90 min, 0.2 mM ([8]; TA1535, –S9, 0.2 mM): 0.6; fold induction at 90 min, 0.5 mM ([8]; TA1535, –S9, 0.5 mM): 1.7
